# Assay results reported in US20080200448A1, “New Pyridine Analogues VIII 518” (ASTRAZENECA AB, priority 2007, published 2008).
# pIC50: −log10 of the molar value.
# Target: T1, P2Y12 receptor (Homo sapiens, UniProt Q9H244)
# T1 construct: expressed in transfected cells; host or cells: CHO cells (membrane preparation)
# Test: Functional inhibition of 2-Me-S-ADP induced P2Y12 signalling (35S-GTPγS binding, cell membranes)
# Format: biochemical
# Conditions: 35S-GTPγS assay, membranes, EC80 concentration of 2-methyl-thio-adenosine diphosphate, 30° C. for 45 min; read-out: GTPγS (IC50 μM)
# In short: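 Membranes (5 μg) from P2Y12-transfected CHO cells in pH 7.4 HEPES buffer with 10 μM GDP and saponin were stimulated with an EC80 of 2-methyl-thio-ADP plus compound and ^35S-GTPγS for 45 min at 30° C. Filter-retained ^35S-GTPγS was counted, normalised between agonist and no-agonist activity, and IC50 taken from a four-parameter fit.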
# T1 sequence (Q9H244 whole entry): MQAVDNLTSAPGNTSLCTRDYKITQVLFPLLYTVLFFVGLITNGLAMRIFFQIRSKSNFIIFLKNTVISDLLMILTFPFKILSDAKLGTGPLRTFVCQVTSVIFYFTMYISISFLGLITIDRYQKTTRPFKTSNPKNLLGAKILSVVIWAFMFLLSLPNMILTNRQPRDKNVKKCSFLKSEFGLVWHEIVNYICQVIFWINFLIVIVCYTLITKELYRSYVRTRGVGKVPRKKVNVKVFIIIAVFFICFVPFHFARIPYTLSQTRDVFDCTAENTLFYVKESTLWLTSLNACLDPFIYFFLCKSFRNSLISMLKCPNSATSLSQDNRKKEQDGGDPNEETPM
row,Structure (SMILES),IC50 [µM]
1,"CC(C)OC(=O)c1cc(C#N)c(N2CCC(C(=O)NS(=O)(=O)N(C)c3ccc(F)cc3)CC2)nc1CN1CCCC1=O [Example 79, Isopropyl 5-cyano-6-[4-({[(4-fluorophenyl)(methyl)amino]sulfonyl}carbamoyl)piperidin-1-yl]-2-[(2-oxopyrrolidin-1′-yl)methyl]nicotinate]",0.014
2,"CCOC(=O)c1cc(C#N)c(N2CCC(C(=O)NS(=O)(=O)Cc3ccccc3)CC2)nc1CSCCC(=O)OC [Example 119, Ethyl 6-{4-[(benzylsulfonyl)carbamoyl]piperidin-1-yl}-5-cyano-2-{[(3-methoxy-3-oxopropyl)thio]methyl}nicotinate]",0.042
3,"CCOC(=O)c1cc(C#N)c(N2CCC(C(=O)NS(=O)(=O)Cc3ccccc3)CC2)nc1CN(C)C [Example 4, Ethyl 6-{4-[(benzylsulfonyl)carbamoyl]piperidin-1-yl}-5-cyano-2-[(dimethylamino)methyl]nicotinate]",0.282
4,"CCOC(=O)c1cc(C#N)c(N2CCC(C(=O)NS(=O)(=O)Cc3ccccc3)CC2)nc1OCC1CCO1 (stereo not shown) [Example 23, Ethyl 6-{4-[(benzylsulfonyl)carbamoyl]piperidin-1-yl}-5-cyano-2-(oxetan-2-ylmethoxy)nicotinate]",0.048

# Results, then the molecule that gave them:
row,IC50 [µM],Structure (SMILES)
1,0.016,"COc1ccc(CS(=O)(=O)NC(=O)C2CCN(c3nc(CN4CCCC4=O)c(C(=O)OC(C)C)cc3C#N)CC2)cc1 [Example 83, Isopropyl 5-cyano-6-(4-{[(4-methoxybenzyl)sulfonyl]carbamoyl}piperidin-1-yl)-2-[(2-oxopyrrolidin-1-yl)methyl]nicotinate]"
2,0.014,"CC(C)OC(=O)c1cc(C#N)c(N2CCC(C(=O)NS(=O)(=O)Cc3ccc(Cl)cc3F)CC2)nc1CN1CCCC1=O [Example 52, Isopropyl 6-(4-{[(4-chloro-2-fluorobenzyl)sulfonyl]carbamoyl}piperidin-1-yl)-5-cyano-2-[(2-oxopyrrolidin-1-yl)methyl]nicotinate]"

# Same assay, conditions: functional inhibition of 2-Me-S-ADP induced P2Y12 signalling; membranes from P2Y12 transfected CHO-cells; EC80 concentration of agonist; read-out: IC50
row,pIC50,Structure (SMILES)
1,6.55,"CCOC(=O)c1cc(C#N)c(N2CCC(C(=O)NS(=O)(=O)Cc3ccccc3)CC2)nc1CN(C)C [Example 4, Ethyl 6-{4-[(benzylsulfonyl)carbamoyl]piperidin-1-yl}-5-cyano-2-[(dimethylamino)methyl]nicotinate]"
